Columns and labels:
amyloid plaques = test: Autoradiography using postmortem brain section of patient with Alzheimer's disease (Example 7); type: binding, human (Alzheimer's disease patient); details: brain section (temporal lobe) of Alzheimer's disease patient; 0.37 MBq/100 μL, 1 hour
Protocol: A postmortem autopsy brain section (temporal lobe) of a patient with Alzheimer's disease was incubated together with each of [^18F]E3, [^18F]D3, [^18F]E1, and [^18F]E2 (0.37 MBq/100 μL each) at room temperature for 1 hour. The resultant was washed with a 50 volume % ethanol aqueous solution (2 minutes×2) and water (2 minutes×2), and after drying, the section was contacted with BAS imaging plate (from Fujifilm Corporation) for 1.5 hours. The image of autoradiography was obtained using BAS5000 scanner system (from Fujifilm Corporation).
A section adjacent to the brain section used was immunostained in the following manner.
First, a paraffin-embedded brain section of the Alzheimer's disease patient (temporal lobe, 6 μm in thickness) was incubated with xylene (15 minutes×2), ethanol (1 minute×2), a 90 volume % ethanol aqueous solution (1 minute×2), and a 70 volume % ethanol aqueous solution (1 minute×1) in that order for complete deparaffinization, and then washed in water (2.5 minutes×2). Thereafter, the section was subjected to autoclave treatment for 15 minutes in 0.01 mol/L citrate buffer solution (pH 6.0). The resultant was incubated in PBS-Tween20 (5 minutes×2), and a mouse anti-Aβ1-42 primary monoclonal antibody (from Wako Pure Chemical Industries Ltd.) was then added thereto, which was then incubated at room temperature overnight. The resultant was incubated in PBS-Tween20 (2 minutes×3), and a biotin-goat anti-mouse IgG (from Funakoshi Co., Ltd.) was then added thereto, which was then incubated at room temperature for 1 hour. The resultant was incubated in PBS-Tween20 (5 minutes×3), and a streptavidin-peroxidase complex (from Funakoshi Co., Ltd.) was added thereto, which was then incubated at room temperature for 30 minutes. In addition, the resultant was incubated in PBS-Tween20 (2 minutes×3); 3,3′-diaminobenzidine was added thereto, which was then incubated at room temperature for 30 minutes; and after washing with water, the section was observed under a microscope to provide an immunostained image (FIG. 10).

[1] = system: amyloid plaques in the brain; test: Ex vivo autoradiography using Alzheimer's disease model mouse (Example 9); type: in vivo; details: Tg2576 mouse (24-month old) vs normal mouse; tail vein; 1 hour after administration
Protocol: To confirm whether the compound 2 has the performance capable of visualizing amyloid plaques in the brain, an image was taken by ex vivo autoradiography in a Tg2576 mouse as one of Alzheimer's disease model animals.
[^18F]D3 (55.5 MBq (1.5 mCi)/200 μL) was administered to a Tg2576 mouse (24-month old, female) and a normal mouse (24-month old, female) through their tail vein. Each mouse was sacrificed 1 hour after administration, and the brain was removed, embedded in a carboxymethylcellulose solution, and frozen in a dry ice-hexane bath, followed by preparing frozen sections having a thickness of 30 μm using a cryostat (Leica). The resultant brain tissue sections were each placed on an imaging plate (Model BAS-SR, from Fujifilm Corporation) for 30 minutes for exposure, and the respective autoradiographs were obtained using an image analyzer (Bio Imaging Analyzer Model BAS5000, from Fujifilm Corporation). The same sections were each stained with thioflavin S ([…]), washed, and observed under a fluorescent microscope.

[2] = In vivo radioactivity distribution experiment (Example 8); details: ddY mice, tail vein, SD in parenthesis
Protocol: Through the tail vein of ddY mice (male, 5 week-old) was injected each of a 10 volume % ethanol-containing saline solution of [^18F]E3 (45.4 kBq, 100 μL), a 10 volume % ethanol-containing saline solution of [^18F]D3 (38.2 kBq, 100 μL), a 10 volume % ethanol-containing saline solution of [^18F]E1 (45.1 kBq, 100 μL), and a 10 volume % ethanol-containing saline solution of [^18F]E2 (40.6 kBq, 100 μL). Five mice were used for each group and sacrificed 2, 10, 30, and 60 minutes after administration to remove major organs. The blood and organs were weighed and further measured for radioactivity using a γ counter. The amount of radioactivity per unit mass was measured in each organ to evaluate radioactivity distribution.

Sequence of amyloid plaques (P05067 672-711 limits assumed): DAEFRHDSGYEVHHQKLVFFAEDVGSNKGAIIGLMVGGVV
Sequence of amyloid plaques in the brain (P05067 672-711 limits assumed): as above

For “4-(6-(2-[^18F]Fluoroethoxy)quinoxalin-2-yl)-N,N-dimethylaniline [[^18F]D3]”, the “visualization of gray matter / amyloid plaques by autoradiography” value (amyloid plaques) was “amyloid plaques were visualized”, the “visualization of amyloid plaques in the brain, ex vivo autoradiography” value [1] was “could visualize amyloid plaques in the brain” and the “Radioactivity Amount, Blood” value ([2]; 2 min. after) was 2.66 (0.50) % injected dose/g. The “Radioactivity Amount, Blood” value ([2]; 10 min. after) was 2.29 (0.25) % injected dose/g, the “Radioactivity Amount, Blood” value ([2]; 30 min. after) was 2.98 (0.29) % injected dose/g and the “Radioactivity Amount, Blood” value ([2]; 60 min. after) was 3.26 (0.37) % injected dose/g. The “Radioactivity Amount, Bone” value ([2]; 2 min. after) was 2.65 (0.61) % injected dose/g, the “Radioactivity Amount, Bone” value ([2]; 10 min. after) was 2.75 (0.36) % injected dose/g and the “Radioactivity Amount, Bone” value ([2]; 30 min. after) was 2.82 (0.78) % injected dose/g. For the same substance, the “Radioactivity Amount, Bone” value ([2]; 60 min. after) was 2.77 (1.27) % injected dose/g, the “Radioactivity Amount, Brain” value ([2]; 2 min. after) was 5.67 (0.48) % injected dose/g and the “Radioactivity Amount, Brain” value ([2]; 10 min. after) was 6.39 (0.51) % injected dose/g. For the same substance, the “Radioactivity Amount, Brain” value ([2]; 30 min. after) was 3.73 (0.50) % injected dose/g, the “Radioactivity Amount, Brain” value ([2]; 60 min. after) was 2.61 (0.37) % injected dose/g and the “Radioactivity Amount, Heart” value ([2]; 2 min. after) was 8.50 (1.40) % injected dose/g. The “Radioactivity Amount, Heart” value ([2]; 10 min. after) was 4.19 (0.47) % injected dose/g, the “Radioactivity Amount, Heart” value ([2]; 30 min. after) was 3.29 (0.68) % injected dose/g and the “Radioactivity Amount, Heart” value ([2]; 60 min. after) was 3.74 (0.72) % injected dose/g. For the same substance, the “Radioactivity Amount, Intestine” value ([2]; 2 min. after) was 2.56 (0.10) % injected dose/g, the “Radioactivity Amount, Intestine” value ([2]; 10 min. after) was 5.27 (0.27) % injected dose/g and the “Radioactivity Amount, Intestine” value ([2]; 30 min. after) was 9.82 (1.43) % injected dose/g. For the same substance, the “Radioactivity Amount, Intestine” value ([2]; 60 min. after) was 12.3 (0.79) % injected dose/g, the “Radioactivity Amount, Kidney” value ([2]; 2 min. after) was 10.7 (0.96) % injected dose/g and the “Radioactivity Amount, Kidney” value ([2]; 10 min. after) was 6.66 (0.45) % injected dose/g. The “Radioactivity Amount, Kidney” value ([2]; 30 min. after) was 4.19 (0.78) % injected dose/g, the “Radioactivity Amount, Kidney” value ([2]; 60 min. after) was 3.30 (0.39) % injected dose/g and the “Radioactivity Amount, Liver” value ([2]; 2 min. after) was 10.3 (1.00) % injected dose/g. For the same substance, the “Radioactivity Amount, Liver” value ([2]; 10 min. after) was 9.83 (0.22) % injected dose/g, the “Radioactivity Amount, Liver” value ([2]; 30 min. after) was 6.91 (0.81) % injected dose/g and the “Radioactivity Amount, Liver” value ([2]; 60 min. after) was 6.65 (0.90) % injected dose/g. The “Radioactivity Amount, Lung” value ([2]; 2 min. after) was 8.94 (1.76) % injected dose/g, the “Radioactivity Amount, Lung” value ([2]; 10 min. after) was 4.59 (1.07) % injected dose/g and the “Radioactivity Amount, Lung” value ([2]; 30 min. after) was 3.51 (0.44) % injected dose/g. The “Radioactivity Amount, Lung” value ([2]; 60 min. after) was 3.39 (0.14) % injected dose/g, the “Radioactivity Amount, Pancreas” value ([2]; 2 min. after) was 6.55 (0.63) % injected dose/g and the “Radioactivity Amount, Pancreas” value ([2]; 10 min. after) was 4.74 (0.42) % injected dose/g. The “Radioactivity Amount, Pancreas” value ([2]; 30 min. after) was 2.73 (0.50) % injected dose/g, the “Radioactivity Amount, Pancreas” value ([2]; 60 min. after) was 2.74 (0.19) % injected dose/g and the “Radioactivity Amount, Spleen” value ([2]; 2 min. after) was 2.86 (0.66) % injected dose/g. The “Radioactivity Amount, Spleen” value ([2]; 10 min. after) was 4.09 (0.33) % injected dose/g, the “Radioactivity Amount, Spleen” value ([2]; 30 min. after) was 2.66 (0.57) % injected dose/g and the “Radioactivity Amount, Spleen” value ([2]; 60 min. after) was 3.07 (0.68) % injected dose/g. For the same substance, the “Radioactivity Amount, Stomach*” value ([2]; 2 min. after) was 1.09 (0.05) % injected dose per organ, the “Radioactivity Amount, Stomach*” value ([2]; 10 min. after) was 1.64 (0.28) % injected dose per organ and the “Radioactivity Amount, Stomach*” value ([2]; 30 min. after) was 1.98 (0.47) % injected dose per organ. For the same substance, the “Radioactivity Amount, Stomach*” value ([2]; 60 min. after) was 2.06 (0.46) % injected dose per organ.

— patent US20140088306A1, “RADIOACTIVE FLUORINE-LABELED QUINOXALINE COMPOUND” (Nihon Medi-Physics Co., Ltd., priority 2012, published 2014)
